± gives the expanded uncertainty stated by the source.
Assay: xn = mol fraction of the nth substance listed
Settings: 101 kPa, Liquid; for viscosity: Concentric cylinders viscometry; for mass density: Vibrating tube method

CCOC(=O)C(C)O (stereo not drawn) [DL-ethyl lactate] + CC(O)CO
Settings | mass density [kg/m3] | viscosity [mPa·s]
288.15 K, x1 = 0.1 | 1039.89 ± 0.31 | 49.88 ± 0.87
288.15 K, x1 = 0.2 | 1039.87 ± 0.36 | 30.87 ± 0.54
288.15 K, x1 = 0.3 | 1039.88 ± 0.41 | 21.2 ± 0.38
288.15 K, x1 = 0.3999 | 1039.91 ± 0.47 | 14.75 ± 0.26
288.15 K, x1 = 0.4998 | 1039.94 ± 0.53 | 10.62 ± 0.19
288.15 K, x1 = 0.599 | 1039.96 ± 0.6 | 7.616 ± 0.14
288.15 K, x1 = 0.6999 | 1039.9 ± 0.67 | 6.169 ± 0.11
288.15 K, x1 = 0.7994 | 1039.72 ± 0.75 | 4.764 ± 0.089
288.15 K, x1 = 0.8997 | 1039.32 ± 0.83 | 4.114 ± 0.078
288.15 K, x1 = 1 | 1039.28 ± 0.92 | 3.207 ± 0.062
293.15 K, x1 = 0.1 | 1036.36 ± 0.3 | 36.91 ± 0.64
293.15 K, x1 = 0.2 | 1035.81 ± 0.35 | 23.41 ± 0.41
293.15 K, x1 = 0.3 | 1035.6 ± 0.41 | 16.34 ± 0.29
293.15 K, x1 = 0.3999 | 1035.44 ± 0.46 | 11.64 ± 0.21
293.15 K, x1 = 0.4998 | 1035.3 ± 0.53 | 8.236 ± 0.15
293.15 K, x1 = 0.599 | 1035.15 ± 0.59 | 6.227 ± 0.11
293.15 K, x1 = 0.6999 | 1034.93 ± 0.67 | 5.098 ± 0.094
293.15 K, x1 = 0.7994 | 1034.57 ± 0.74 | 4.153 ± 0.078
293.15 K, x1 = 0.8997 | 1034.01 ± 0.82 | 3.478 ± 0.066
293.15 K, x1 = 1 | 1033.84 ± 0.91 | 2.75 ± 0.053
298.15 K, x1 = 0.1 | 1032.13 ± 0.3 | 27.72 ± 0.48
298.15 K, x1 = 0.2 | 1031.64 ± 0.35 | 18.11 ± 0.32
298.15 K, x1 = 0.3 | 1031.2 ± 0.4 | 12.87 ± 0.23
298.15 K, x1 = 0.3999 | 1030.83 ± 0.46 | 9.303 ± 0.17
298.15 K, x1 = 0.4998 | 1030.52 ± 0.52 | 6.75 ± 0.12
298.15 K, x1 = 0.599 | 1030.23 ± 0.59 | 5.172 ± 0.095
298.15 K, x1 = 0.6999 | 1029.94 ± 0.66 | 4.274 ± 0.079
298.15 K, x1 = 0.7994 | 1029.58 ± 0.73 | 3.521 ± 0.066
298.15 K, x1 = 0.8997 | 1029.08 ± 0.81 | 2.978 ± 0.057
298.15 K, x1 = 1 | 1028.39 ± 0.9 | 2.39 ± 0.046
303.15 K, x1 = 0.1 | 1028.31 ± 0.3 | 21.49 ± 0.37
303.15 K, x1 = 0.2 | 1027.6 ± 0.34 | 14.26 ± 0.25
303.15 K, x1 = 0.3 | 1026.98 ± 0.4 | 10.37 ± 0.18
303.15 K, x1 = 0.3999 | 1026.44 ± 0.45 | 7.605 ± 0.14
303.15 K, x1 = 0.4998 | 1025.95 ± 0.51 | 5.615 ± 0.1
303.15 K, x1 = 0.599 | 1025.46 ± 0.58 | 4.35 ± 0.08
303.15 K, x1 = 0.6999 | 1024.89 ± 0.65 | 3.632 ± 0.067
303.15 K, x1 = 0.7994 | 1024.21 ± 0.72 | 3.021 ± 0.057
303.15 K, x1 = 0.8997 | 1023.32 ± 0.8 | 2.582 ± 0.049
303.15 K, x1 = 1 | 1022.92 ± 0.88 | 2.097 ± 0.041
308.15 K, x1 = 0.1 | 1024.23 ± 0.29 | 16.84 ± 0.29
308.15 K, x1 = 0.2 | 1023.36 ± 0.34 | 11.41 ± 0.2
308.15 K, x1 = 0.3 | 1022.6 ± 0.39 | 8.434 ± 0.15
308.15 K, x1 = 0.3999 | 1021.9 ± 0.45 | 6.292 ± 0.11
308.15 K, x1 = 0.4998 | 1021.21 ± 0.51 | 4.739 ± 0.086
308.15 K, x1 = 0.599 | 1020.5 ± 0.57 | 3.704 ± 0.068
308.15 K, x1 = 0.6999 | 1019.72 ± 0.64 | 3.118 ± 0.058
308.15 K, x1 = 0.7994 | 1018.88 ± 0.71 | 2.626 ± 0.049
308.15 K, x1 = 0.8997 | 1017.93 ± 0.79 | 2.259 ± 0.043
308.15 K, x1 = 1 | 1017.42 ± 0.87 | 1.858 ± 0.036
313.15 K, x1 = 0.1 | 1020.4 ± 0.29 | 13.41 ± 0.23
313.15 K, x1 = 0.2 | 1019.26 ± 0.34 | 9.264 ± 0.16
313.15 K, x1 = 0.3 | 1018.24 ± 0.39 | 6.949 ± 0.12
313.15 K, x1 = 0.3999 | 1017.32 ± 0.44 | 5.27 ± 0.094
313.15 K, x1 = 0.4998 | 1016.47 ± 0.5 | 4.04 ± 0.073
313.15 K, x1 = 0.599 | 1015.64 ± 0.56 | 3.187 ± 0.058
313.15 K, x1 = 0.6999 | 1014.75 ± 0.63 | 2.706 ± 0.05
313.15 K, x1 = 0.7994 | 1013.74 ± 0.7 | 2.302 ± 0.043
313.15 K, x1 = 0.8997 | 1012.53 ± 0.78 | 1.995 ± 0.038
313.15 K, x1 = 1 | 1011.9 ± 0.86 | 1.658 ± 0.032
318.15 K, x1 = 0.1 | 1016.39 ± 0.28 | 10.83 ± 0.19
318.15 K, x1 = 0.2 | 1015.04 ± 0.33 | 7.619 ± 0.13
318.15 K, x1 = 0.3 | 1013.82 ± 0.38 | 5.804 ± 0.1
318.15 K, x1 = 0.3999 | 1012.72 ± 0.44 | 4.465 ± 0.08
318.15 K, x1 = 0.4998 | 1011.69 ± 0.49 | 3.482 ± 0.063
318.15 K, x1 = 0.599 | 1010.69 ± 0.56 | 2.767 ± 0.051
318.15 K, x1 = 0.6999 | 1009.63 ± 0.62 | 2.368 ± 0.044
318.15 K, x1 = 0.7994 | 1008.46 ± 0.7 | 2.034 ± 0.038
318.15 K, x1 = 0.8997 | 1007.1 ± 0.77 | 1.774 ± 0.034
318.15 K, x1 = 1 | 1006.36 ± 0.85 | 1.491 ± 0.029
323.15 K, x1 = 0.1 | 1012.34 ± 0.28 | 8.86 ± 0.15
323.15 K, x1 = 0.2 | 1010.78 ± 0.33 | 6.34 ± 0.11
323.15 K, x1 = 0.3 | 1009.36 ± 0.38 | 4.904 ± 0.087
323.15 K, x1 = 0.3999 | 1008.08 ± 0.43 | 3.824 ± 0.068
323.15 K, x1 = 0.4998 | 1006.88 ± 0.49 | 3.03 ± 0.055
323.15 K, x1 = 0.599 | 1005.71 ± 0.55 | 2.423 ± 0.045
323.15 K, x1 = 0.6999 | 1004.48 ± 0.62 | 2.09 ± 0.039
323.15 K, x1 = 0.7994 | 1003.15 ± 0.69 | 1.81 ± 0.034
323.15 K, x1 = 0.8997 | 1001.64 ± 0.76 | 1.589 ± 0.031
323.15 K, x1 = 1 | 1000.79 ± 0.84 | 1.349 ± 0.026

— the NIST ThermoML archive (doi:10.1016/j.fluid.2014.04.002)
